Usually pIC50 stands for the negative decadic logarithm of the IC50, by convention in mol/L.

The subject of assay [1] is Wnt reporter (TCF/LEF1 promoter). The experiment in a line: HEK STF293 Wnt reporter (TOPFlash) luciferase assay, Steady Glo normalised to Cell Titer. The assay is classed as cell-based, human. How it is done: All compounds were tested using the human cell line HEK STF293. This cell line carries a Wnt reporter (TCF/LEF1 promoter), which drives expression of the firefly luciferase protein. The level of Wnt activity is directly correlated with the level of luciferase activity (determined using a simple assay). Compounds that inhibit Wnt signaling by reducing luciferase activity in these two cell lines are further tested biochemically. […] Compounds were further tested in a Viability assay using Wnt-dependent HCT116 cell line. Compounds were prepared as 10 mM stocks for each compound in DMSO. Dilutions were prepared in a 96-well plate in DMSO. The stock dilutions are as follows: 10 mM, 1 mM, 100 μM, 10 μM, 100 nM, and 10 nM. Plates were sealed and stored at −20° C. […] On the first day, Wnt3a-conditioned media (1:1) were added along with diluted compounds (1:100). […] The final concentrations should therefore be 100 μM, 10 μM, 1 μM, 100 nM, 10 nM, and 1 nM. On the second day, the media was removed and 75 μL of Passive Lysis Buffer (Promega) is added to each well. The plate was shaken at 130 rpm for 15 minutes. For the Steady Glo assay, 45 μL of the lysis was removed and added to a white 96-well plate containing 45 μL/well of Steady Glo solution (Promega). For the Cell Titer assay, 25 μL of the lysis was transferred to a white 96-well plate containing 25 μL/well of Cell Titer solution (Promega). Both Steady Glo and Cell Titer assays were read with a luminescence plate reader. When determining EC50, the Steady Glo values were divided by the Cell Titer values to normalize for cell number. All compounds were tested using the human cell line HEK STF293. This cell line carries a Wnt reporter (TCF/LEF1 promoter), which drives expression of the firefly luciferase protein. The level of Wnt activity is directly correlated with the level of luciferase activity (determined using a simple assay). Compounds that inhibit Wnt signaling by reducing luciferase activity in these two cell lines are further tested biochemically. […] Compounds were further tested in a Viability assay using Wnt-dependent HCT116 cell line. Compounds were prepared as 10 mM stocks for each compound in DMSO. Dilutions were prepared in a 96-well plate in DMSO. The stock dilutions are as follows: 10 mM, 1 mM, 100 μM, 10 μM, 100 nM, and 10 nM. Plates were sealed and stored at −20° C. […] On the first day, Wnt3a-conditioned media (1:1) were added along with diluted compounds (1:100). […] The final concentrations should therefore be 100 μM, 10 μM, 1 μM, 100 nM, 10 nM, and 1 nM. On the second day, the media was removed and 75 μL of Passive Lysis Buffer (Promega) is added to each well. The plate was shaken at 130 rpm for 15 minutes. For the Steady Glo assay, 45 μL of the lysis was removed and added to a white 96-well plate containing 45 μL/well of Steady Glo solution (Promega). For the Cell Titer assay, 25 μL of the lysis was transferred to a white 96-well plate containing 25 μL/well of Cell Titer solution (Promega). Both Steady Glo and Cell Titer assays were read with a luminescence plate reader. When determining EC50, the Steady Glo values were divided by the Cell Titer values to normalize for cell number. All compounds were tested using the human cell line HEK STF293. This cell line carries a Wnt reporter (TCF/LEF1 promoter), which drives expression of the firefly luciferase protein. The level of Wnt activity is directly correlated with the level of luciferase activity (determined using a simple assay). Compounds that inhibit Wnt signaling by reducing luciferase activity in these two cell lines are further tested biochemically. […] Compounds were further tested in a Viability assay using Wnt-dependent HCT116 cell line. Compounds were prepared as 10 mM stocks for each compound in DMSO. Dilutions were prepared in a 96-well plate in DMSO. The stock dilutions are as follows: 10 mM, 1 mM, 100 μM, 10 μM, 100 nM, and 10 nM. Plates were sealed and stored at −20° C. […]

For assay [2], the system named is Wnt-dependent HCT116 cell line. The experiment in a line: Viability assay using Wnt-dependent HCT116 cell line (Cell Titer Glo). The assay is classed as cell-based. How it is done: All compounds were tested using the human cell line HEK STF293. This cell line carries a Wnt reporter (TCF/LEF1 promoter), which drives expression of the firefly luciferase protein. The level of Wnt activity is directly correlated with the level of luciferase activity (determined using a simple assay). Compounds that inhibit Wnt signaling by reducing luciferase activity in these two cell lines are further tested biochemically. […] Compounds were further tested in a Viability assay using Wnt-dependent HCT116 cell line. HEK293 cells were seeded in a 6-well plate at approximately 8.0×10^5 cells (2 mL per well). On the first day, Wnt3a-conditioned media (1:1) and compounds (1:100) were added to the plated cells. The final concentrations of compounds were 1 μM, 500 nM, and 100 nM. Vehicle (DMSO) and a Wnt3a-conditioned media plus Vehicle samples were also prepared as controls. Lysates were collected (with non-denaturing lysis buffer) after 24 hours incubation, and protein concentrations determined by Bradford Assay. Immunoblotting with an anti-beta-catenin antibody (equivalent amounts of protein/lane for each condition) were subsequently performed to determine beta-catenin levels. HCT116 cells were seeded at 2,500 cells/well in a 96-well dish (Volume: 100 μL/well). On the second day, the 10 mM stock solution of each test compound was thawed at room temperature. Dilutions of the test compound were prepared in DMSO in a V-bottom 96-well plate. The stock compound solution, DMSO-diluted compound solutions, and DMSO were further diluted 500-fold in cell culture media, and 100 μL of the compound- or DMSO-containing cell culture media was added to each well of the cells. […] The final DMSO concentration was 0.1% in all wells. On the fifth day, 150 μL of media was removed from each well. 50 μL/well Cell Titer Glo reagent (Promega) was added to each well. The plate was shaken at 130 rpm for 15 minutes at room temperature, and the cell viability was determined using a luminescence plate reader. All compounds were tested using the human cell line HEK STF293. This cell line carries a Wnt reporter (TCF/LEF1 promoter), which drives expression of the firefly luciferase protein. The level of Wnt activity is directly correlated with the level of luciferase activity (determined using a simple assay). Compounds that inhibit Wnt signaling by reducing luciferase activity in these two cell lines are further tested biochemically. […] Compounds were further tested in a Viability assay using Wnt-dependent HCT116 cell line. HEK293 cells were seeded in a 6-well plate at approximately 8.0×10^5 cells (2 mL per well). On the first day, Wnt3a-conditioned media (1:1) and compounds (1:100) were added to the plated cells. The final concentrations of compounds were 1 μM, 500 nM, and 100 nM. Vehicle (DMSO) and a Wnt3a-conditioned media plus Vehicle samples were also prepared as controls. Lysates were collected (with non-denaturing lysis buffer) after 24 hours incubation, and protein concentrations determined by Bradford Assay. Immunoblotting with an anti-beta-catenin antibody (equivalent amounts of protein/lane for each condition) were subsequently performed to determine beta-catenin levels. HCT116 cells were seeded at 2,500 cells/well in a 96-well dish (Volume: 100 μL/well). On the second day, the 10 mM stock solution of each test compound was thawed at room temperature. Dilutions of the test compound were prepared in DMSO in a V-bottom 96-well plate. The stock compound solution, DMSO-diluted compound solutions, and DMSO were further diluted 500-fold in cell culture media, and 100 μL of the compound- or DMSO-containing cell culture media was added to each well of the cells. […] The final DMSO concentration was 0.1% in all wells. On the fifth day, 150 μL of media was removed from each well. 50 μL/well Cell Titer Glo reagent (Promega) was added to each well. The plate was shaken at 130 rpm for 15 minutes at room temperature, and the cell viability was determined using a luminescence plate reader. […]
A general note: Cellular ATP, detected with luciferase, serves as a proxy for viable cell number.

Where [3] appears, read: Homo sapiens, STF/293, Examples for Formulae (IV), (V), (VI), and (VII), HEK STF293 cells, Wnt3a-conditioned media, read-out: TOPFlash IC50 category.
The mark [4] stands for this setting: Homo sapiens, HCT-116, Examples for Formulae (IV), (V), (VI), and (VII), HCT116 cells, read-out: Viability IC50 category.
[5] abbreviates: Homo sapiens, STF/293, read-out: TOPFlash IC50 category.
Setting [6] is: Homo sapiens, HCT-116, read-out: Viability IC50 category.
The mark [7] stands for this setting: Homo sapiens, STF/293, Examples for Formulae (I), (II), and (III), HEK STF293 cells, Wnt3a-conditioned media, read-out: TOPFlash IC50 category.
The mark [8] stands for this setting: Homo sapiens, HCT-116, Examples for Formulae (I), (II), and (III), HCT116 cells, read-out: Viability IC50 category.
Where [9] appears, read: Examples for Formulae (IV), (V), (VI), and (VII), HEK STF293 cells, Wnt3a-conditioned media, read-out: TOPFlash IC50 category.
Setting [10] is: Examples for Formulae (IV), (V), (VI), and (VII), HCT116 cells, read-out: Viability IC50 category.
Setting [11] is: Homo sapiens, STF/293, Examples for Formulae (VIII), (IX), and (X), HEK STF293 cells, Wnt3a-conditioned media, read-out: TOPFlash IC50 category.
Setting [12] is: Homo sapiens, HCT-116, Examples for Formulae (VIII), (IX), and (X), HCT116 cells, read-out: Viability IC50 category.

Molecules are shown by their SMILES. pIC50: −log10 of the molar value. Like-named read-outs stand apart in the source and are kept apart here. Bounds are passed on as bounds.

`Cc1noc(-c2ccccc2)c1C(=O)Nc1nc(-c2ccccn2)cs1` [Example 3]: the pIC50 in assay [1] (setting [3]) and in assay [2] (setting [4]) was 6.30 to 6.70 each time.

Consider `Cc1onc(-c2cccc(F)c2F)c1C(=O)Nc1nc(-c2ccccn2)cs1` [Example 19], for which the pIC50 in assay [1] (setting [3]) and in assay [2] (setting [4]) was 6.30 to 6.70 each time.

On to `CC(C)(C)c1nc(-c2ccc(F)cc2)c(C(=O)Nc2nc(-c3ccccn3)cs2)o1` [Example 23], for which the pIC50 in assay [1] (setting [5]) and in assay [2] (setting [6]) was 6.30 to 6.70 throughout.

For the compound `Cc1nc(-c2ccc(Cl)cc2)c(C(=O)Nc2nc(-c3ccccn3)cs2)o1` [Example 9], the negative-log IC50 (pIC50) in assay [1] (setting [3]) and in assay [2] (setting [4]) was over 6.70 throughout.

For the compound `Cc1onc(-c2cccc(F)c2)c1C(=O)Nc1nc(-c2ccccn2)cs1` [Example 5], the pIC50 in assay [1] (setting [3]) and in assay [2] (setting [4]) was 6.30 to 6.70 in each case.

With `O=C(Nc1nc(-c2ccccn2)cs1)c1cnnn1-c1cccc(F)c1` [Example 18], the pIC50 in assay [1] (setting [7]) and in assay [2] (setting [8]) was 6.30 to 6.70 throughout.

For the compound `Cc1nc(-c2ccc(-c3nnc(C(F)(F)F)o3)cc2)c(C(=O)Nc2nc(-c3ccccn3)cs2)o1` [Example 66], the pIC50 in assay [1] (setting [9]) and in assay [2] (setting [10]) was over 6.70 throughout.

For `Cc1nn(Cc2ccc(F)cc2)c(Cl)c1C(=O)Nc1nc(-c2ccccn2)cs1` [Example 9], the pIC50 in assay [1] (setting [7]) and in assay [2] (setting [8]) was 6.00 to 6.30 each time.

Regarding `O=C(Nc1nc(-c2ccccn2)cs1)c1cccnc1-c1ccc(F)cc1` [Example 12], the negative-log IC50 (pIC50) in assay [1] (setting [11]) is 6.30 to 6.70; in assay [2] (setting [12]) it was 6.00 to 6.30.

Consider `Cc1onc(-c2ccc(C(F)(F)F)cc2)c1C(=O)Nc1nc(-c2ccccn2)cs1` [Example 24], for which the pIC50 in assay [1] (setting [5]) and in assay [2] (setting [6]) was over 6.70 throughout.

In the case of `O=C(Nc1nc(-c2ccccn2)cs1)c1ccc(=O)n(-c2ccc(F)cc2)c1` [Example 2], the pIC50 in assay [1] (setting [11]) was 6.30 to 6.70; in assay [2] (setting [12]), 6.00 to 6.30.

Regarding `Cc1nn(-c2ccc(F)cc2)c(C)c1C(=O)Nc1nc(-c2ccccn2)cs1` [Example 5], the pIC50 in assay [1] (setting [7]) and in assay [2] (setting [8]) was 5.00 to 6.00 each time.

For the compound `Cc1nc(-c2ccccc2F)c(C(=O)Nc2nc(-c3ccccn3)cs2)o1` [Example 10], the negative logarithm of the IC50 (pIC50) in assay [1] (setting [3]) is over 6.70; in assay [2] (setting [4]), 6.30 to 6.70.

With `Cc1nc(-c2ccc(F)cc2)c(C(=O)Nc2nc(-c3ccccn3)cs2)o1` [Example 8], the negative logarithm of the IC50 (pIC50) in assay [1] (setting [3]) and in assay [2] (setting [4]) was over 6.70 throughout.

As for `CN(c1nc(-c2ccc(Cl)cc2)c(C(=O)Nc2nc(-c3ccccn3)cs2)o1)S(=O)(=O)c1ccc(C(F)(F)F)cc1` [Example 73], the pIC50 in assay [1] (setting [9]) and in assay [2] (setting [10]) was over 6.70 throughout.

Regarding `O=C(Nc1nc(-c2ccccn2)cs1)c1ccc(=O)n(Cc2ccc(C(F)(F)F)cc2)c1` [Example 7], the pIC50 in assay [1] (setting [11]) and in assay [2] (setting [12]) was 6.30 to 6.70 in each case.

Turning to `Cc1onc(-c2cccs2)c1C(=O)Nc1nc(-c2ccccn2)cs1` [Example 1], the results for the pIC50 in assay [1] (setting [3]) and in assay [2] (setting [4]) were over 6.70 and 6.30 to 6.70, respectively.

As for `CN(C(=O)c1ccc(Cl)cc1)c1ncc(C(=O)Nc2nc(-c3ccccn3)cs2)o1` [Example 34], the negative-log IC50 (pIC50) in assay [1] (setting [9]) and in assay [2] (setting [10]) was 5.00 to 6.00 each time.

Turning to `Cc1nc(N(C)C(=O)c2ccccc2Cl)oc1C(=O)Nc1nc(-c2ccccn2)cs1` [Example 77], the pIC50 in assay [1] (setting [9]) is 6.30 to 6.70; in assay [2] (setting [10]), 6.00 to 6.30.

In the case of `Cn1cc(C(=O)Nc2nc(-c3ccccn3)cs2)c(-c2ccccc2Cl)n1` [Example 2], the negative logarithm of the IC50 (pIC50) is 5.00 to 6.00 in assay [1] (setting [7]) and 6.00 to 6.30 in assay [2] (setting [8]).

With `CN(c1ncc(C(=O)O)o1)S(=O)(=O)c1ccc(C(F)(F)F)cc1` [Example 43], the pIC50 in assay [1] (setting [9]) and in assay [2] (setting [10]) was over 6.70 throughout.

Turning to `Cc1nnc(-c2ccc(-c3nc(C)oc3C(=O)Nc3nc(-c4ccccn4)cs3)cc2)o1` [Example 65], the pIC50 in assay [1] (setting [9]) and in assay [2] (setting [10]) was over 6.70 throughout.

For the compound `CN(c1nc(C(F)(F)F)c(C(=O)Nc2nc(-c3ccccn3)cs2)o1)S(=O)(=O)c1ccc(F)cc1` [Example 54], the pIC50 in assay [1] (setting [3]) and in assay [2] (setting [4]) was 5.00 to 6.00 in each case.
